For experiment [1], the target named is T1, HIV-1 subtype B integrase (Human immunodeficiency virus type 1, UniProt P12497). Briefly: Disintegration assay. The experiment is classed as biochemical. Particulars: increasing inhibitor concentration. From the text: Oligonucleotides were purchased from Invitrogen and then PAGE purified.
ATP (Perkin Elmer). Unincorporated nucleotides were discarded utilizing 'NucAway columns' (Ambion).

Experiment [2] deals with T2, HIV-1 subtype C integrase (Human immunodeficiency virus type 1, UniProt Q9QN97, C991S/F896H). Particulars: for Inhibition of disintegration: increasing inhibitor concentration. The protocol: (§1) Oligonucleotide-based assays were performed to measure integrase enzymatic activities. All oligonucleotide probes were gel purified and phenol-chloroform extracted. INT1 oligonucleotide was radiolabeled using the T4 Polynucleotide Kinase kit (Ambion) with [γ-^32P] ATP (Perkin Elmer). Unincorporated nucleotides were discarded utilizing 'NucAway columns' (Ambion). A double stranded oligonucleotide substrate was obtained by mixing equal concentrations of INT1 and INT2, heating to 95°C and stepwise cooling to 37°C in 100 mM NaCl. The oligonucleotides T35 and SK70 were annealed to form a second double stranded oligonucleotide. INT1/2 mimicked the HIV-1 U5 long terminal repeat (LTR) and acted as a substrate for 3' processing. T35/SK70 acted as a site for integration of the processed INT1/2 fragment and mimicked host DNA.
Concentrations of enzymes used in the following reactions were optimized in a series of preliminary experiments. Integrase reactions were performed in a buffer containing 20 mM Hepes (pH 7.5), 30 mM NaCl, 1 mM dithiothreitol, 125 μM ZnCl2 and 0.125 pmol dsDNA substrate (INT1/2) in a final volume of 10 μl. Recombinant integrase (3.1 μM), and varying concentrations of integrase inhibitors or water/DMSO as control, were mixed and preincubated at 37°C for 15 min. 3' processing reactions were initiated by addition of 7.5 mM of MnCl2 and incubated at 37°C for 3 min unless otherwise indicated. For strand transfer reactions, 1.25 pmol of dsDNA template (T35/SK70) were added and the reaction mixture was further incubated at 37°C for 1 hour unless otherwise indicated. Reactions were stopped by adding 5 times the volume of gel loading dye (formamide containing 1% SDS, 0.25% bromophenol blue, and 0.25% xylene cyanol) and heating to 95°C. Reaction products were separated on 6% acrylamide, 7 M urea sequencing gels. Gels were dried and exposed utilizing phosphorimager screens (GE Healthcare) and scanned in a Molecular Dynamics Typhoon Phosphorimager (GE Healthcare). Product analysis and quantification were conducted using ImageQuant and GraphPad Prism 4.0 software. Quantification of standard error of the mean (SEM) was performed with GraphPad Prism 4.0 software.

A further experiment concerns Subtype B virus 5331. Briefly: Cell culture phenotypic drug susceptibility assay (p24 antigen) in cord blood mononuclear cells. The experiment is classed as cell-based, HIV-1. The settings on record: read-out: EC50 Values. The protocol:
(§2) Recombinant viruses (subtype B) (pNL4-3 and IIIb) and viruses obtained from either our primary HIV infection cohort or from long-term infected patients (subtype B and C) were amplified as previously described. Drug susceptibility was measured in cell culture-based phenotypic assays using cord blood mononuclear cells to determine the extent of […] HIV replication blockage by integrase inhibitors.

The next experiment has as its system Subtype B virus IIIb. The description is as above. Type of experiment: cell-based, HIV-1. The settings on record: read-out: EC50 Values. The protocol:
as §2

Another experiment relates to Subtype B virus pNL4-3. The experiment is described as above. The experiment is classed as cell-based, HIV-1. Particulars: read-out: EC50 Values. The protocol:
as §2

The subject of a further experiment is Subtype C virus 4742. The description is as above. The experiment is classed as cell-based, HIV-1. The protocol: as §2
A further experiment deals with Subtype C virus 96USNG31. Described as above. Type of experiment: cell-based, HIV-1. The procedure:
as §2

Another experiment has as its system Subtype C virus BG-05. The description is as above. The experiment is classed as cell-based, HIV-1. The protocol: as §2
A further experiment has as its system Subtype C virus HB-1. The experiment is described as above. Type of experiment: cell-based, HIV-1. The protocol: as §2
Experiment [3] deals with T1, HIV-1 subtype B integrase. The experiment is classed as biochemical. The settings on record: Mn2+-based assay, 95% confidence interval in brackets. The procedure: as §1
Concentrations of enzymes used in the following reactions were optimized in a series of preliminary experiments. Integrase reactions were performed in a buffer containing 20 mM Hepes (pH 7.5), 30 mM NaCl, 1 mM dithiothreitol, 125 μM ZnCl2 and 0.125 pmol dsDNA substrate (INT1/2) in a final volume of 10 μl. […] Product analysis and quantification were conducted using ImageQuant and GraphPad Prism 4.0 software. Quantification of standard error of the mean (SEM) was performed with GraphPad Prism 4.0 software.

Experiment [4] addresses T1, HIV-1 subtype B integrase. Type of experiment: biochemical. Particulars: Mg2+-based microtiter plate assay, 95% confidence interval in brackets, read-out: Strand Transfer IC50.
Description: A microtiter plate assay was utilized to evaluate MgCl2-mediated strand transfer as previously described [24, 31]. Briefly, biotinylated oligonucleotides mimicking LTR donor DNA (5'-biotin-[sequence] and 5'-[sequence]) were immobilized onto black-colour Reacti-Bind Streptavidin-coated plates (ThermoFisher). 313 nM recombinant enzyme was bound to donor DNA on the plates in the presence of 25 mM MnCl2 and the plates were then washed to remove excess unbound enzyme. […] Covalently linked target DNA was detected through use of an anti-FITC antibody conjugated to alkaline phosphatase (Roche) and a chemiluminescence substrate (CSPD Sapphire II, Applied Biosystems). Integrase inhibitors were added at increasing concentrations shortly before the addition of target DNA. Strand transfer was evaluated by chemiluminescence.
Experiment [5] has as its target T2, HIV-1 subtype C integrase. The settings on record: read-out: Strand Transfer IC50, Mg2+-based microtiter plate assay, 95% confidence interval in brackets. The protocol:
A microtiter plate assay was utilized to evaluate MgCl2-mediated strand transfer as previously described. Briefly, biotinylated oligonucleotides mimicking LTR donor DNA (5'-biotin-[…] and 5'-[…]) were immobilized onto black-colour Reacti-Bind Streptavidin-coated plates (ThermoFisher). 313 nM recombinant enzyme was bound to donor DNA on the plates in the presence of 25 mM […] and the plates were then washed to remove excess unbound enzyme. […] Covalently linked target DNA was detected through use of an anti-FITC antibody conjugated to alkaline phosphatase (Roche) and a chemiluminescence substrate (CSPD Sapphire II, Applied Biosystems). Integrase inhibitors were added at increasing concentrations shortly before the addition of target DNA. Strand transfer was evaluated by chemiluminescence.

For another experiment, the system named is Subtype B virus 5326. Briefly: Cell culture phenotypic drug susceptibility assay (p24 antigen) in cord blood mononuclear cells. The experiment is classed as cell-based, HIV-1. The settings on record: read-out: EC50 Values. The protocol:
as §2

The subject of another experiment is Subtype B virus BK 132. Described as above. The experiment is classed as cell-based, HIV-1. The settings on record: read-out: EC50 Values. The protocol:
as §2

The subject of the next experiment is Subtype C virus Mole 03. Described as above. Type of experiment: cell-based, HIV-1. The procedure:
as §2

Where [6] appears, read: Human immunodeficiency virus 1, read-out: EC50 Values.

Like-named read-outs stand apart in the source and are kept apart here.

One may read the EC50 as the concentration needed to bring the measured effect to its halfway point. For `COc1cc2c(cc1Cc1cccc(Cl)c1F)c(=O)c(C(=O)O)cn2[C@H](CO)C(C)C` [EVG, elvitegravir], the Inhibition of disintegration entry in experiment [1] and in experiment [2] was “neither RAL nor EVG had much effect” throughout. Further, the concentration for a half-maximal effect (EC50) is 0.1 ± 0.07 nM in the experiment on Subtype B virus 5331; 1.8 ± 0.6 nM in the experiment on Subtype B virus IIIb (IIIB); 0.9 ± 0.3 nM in the experiment with Subtype B virus pNL4-3; 2.2 ± 0.2 nM in the experiment on Subtype C virus 4742 (setting [6]); 0.8 ± 0.6 nM with Subtype C virus 96USNG31 (setting [6]); 0.8 ± 0.04 nM in the experiment on Subtype C virus BG-05 (setting [6]). The EC50 in the experiment with Subtype C virus HB-1 (setting [6]) is 0.1 ± 0.01 nM.

In general, IC50 refers to the concentration that inhibits the measured activity by half. Turning to `CCN1C[C@H](C)n2c(c(O)c3c(=O)n(Cc4ccc(F)c(Cl)c4)nc(C(=O)NC)c32)C1=O` [MK-2048], the IC50 in [3] (read-out: 3' Processing IC50) stood at 580 nM; in experiment [3] (read-out: Strand Transfer IC50), 75 nM; in experiment [4] it was 4.7 nM; in experiment [5], 2.3 nM; in [2] (read-out: 3' Processing IC50, Mn2+-based assay, 95% confidence interval in brackets), 190 nM; in experiment [2] (read-out: Strand Transfer IC50, Mn2+-based assay, 95% confidence interval in brackets) it was 80 nM. In addition, the Inhibition of disintegration entry in experiment [1] and in [2] was “inhibited by high concentrations of MK-2048” each time. Moreover, the concentration for a half-maximal effect (EC50) in the experiment on Subtype B virus 5326 (Subtype B virus 5326, cord blood mononuclear cells, p24 antigen) stood at 7.2 ± 2.1 nM; in the experiment on Subtype B virus 5331 (Subtype B virus 5331, cord blood mononuclear cells, p24 antigen), 1 ± 0.2 nM; in the experiment with Subtype B virus BK 132 (Subtype B virus BK 132, cord blood mononuclear cells, p24 antigen), 14.8 ± 3.2 nM; in the experiment with Subtype B virus IIIb (Subtype B virus IIIb, cord blood mononuclear cells, p24 antigen), 0.3 ± 0.1 nM; in the experiment with Subtype B virus pNL4-3 (Subtype B virus pNL4-3, cord blood mononuclear cells, p24 antigen), 2.7 ± 0.9 nM; with Subtype C virus 4742 (Subtype C virus 4742, cord blood mononuclear cells, p24 antigen, read-out: EC50 Values), 3.3 ± 2 nM. Moreover, the concentration for a half-maximal effect (EC50) with Subtype C virus 96USNG31 (Subtype C virus 96USNG31, cord blood mononuclear cells, p24 antigen, read-out: EC50 Values) was determined as 1.5 ± 0.1 nM; in the experiment with Subtype C virus BG-05 (Subtype C virus BG-05, cord blood mononuclear cells, p24 antigen, read-out: EC50 Values) it was 2.2 ± 0.7 nM; in the experiment on Subtype C virus HB-1 (Subtype C virus HB-1, cord blood mononuclear cells, p24 antigen, read-out: EC50 Values), 0.7 ± 0.5 nM; in the experiment on Subtype C virus Mole 03 (Subtype C virus Mole 03, cord blood mononuclear cells, p24 antigen, read-out: EC50 Values), 1.1 ± 0.1 nM.

As to `Cc1nnc(C(=O)NC(C)(C)c2nc(C(=O)NCc3ccc(F)cc3)c(O)c(=O)n2C)o1` [RAL, raltegravir], the Inhibition of disintegration result in experiment [1] and in experiment [2] was “neither RAL nor EVG had much effect” each time. For the same molecule, the EC50 with Subtype B virus 5326 turned out to be 24.3 ± 2.5 nM; with Subtype B virus 5331 it was 5.6 ± 2.2 nM; in the experiment with Subtype B virus BK 132, 30.1 ± 5.4 nM; in the experiment on Subtype B virus IIIb (IIIB) it was 1.2 ± 0.5 nM; with Subtype B virus pNL4-3 it was 8.2 ± 1.3 nM; with Subtype C virus 4742 (setting [6]), 20.6 ± 9 nM. Further, the EC50 with Subtype C virus 96USNG31 (setting [6]) amounted to 8.7 ± 0.7 nM; with Subtype C virus BG-05 (setting [6]) it was 6.7 ± 0.9 nM; in the experiment on Subtype C virus HB-1 (setting [6]) it was 1.5 ± 0.4 nM; in the experiment with Subtype C virus Mole 03 (setting [6]), 4.6 ± 0.2 nM.

(Values after publication PMC2779801, “Comparative biochemical analysis of HIV-1 subtype B and C integrase enzymes” (Retrovirology, 2009).)
